Legend:
Assay type in all cases: physicochemical
[1] = Surface tension / CMC of surfactants and mixtures by tensiometer, with and without hypochlorite; conditions: for No hypochlorite (CMC): after 24 hours of preparation; for change of CMC value in the presence of hypochlorite: presence vs absence of hypochlorite
Experimental: Thus, the foam formulations were stable in terms of surfactants retaining their surface activity for the foam-deployment-on-surface application.
The surface tension values for pure surfactants and their mixtures—formulations—were determined in the presence and absence of hypochlorite (Table 1). […] The surface tension values for CAPB, taurate, SDS, and surfactin determined after 24 hours of preparation of these solutions, and in the absence and presence of hypochlorite are given in Table 1 and FIGS. 1, 2, and 3; Taurate was used for fundamental reasons and was not considered in preparing the final formulation(s). (The surface tension values were determined using a tensiometer.)
(§1) The CMC values for these surfactants in the absence of hypochlorite, were as reported in the literature. […] A chlorine strip was used to determine hypochlorite degradation.

[2] = Raman microscopy of hypochlorite degradation (ClO-/ClO4- peak ratio); conditions: freshly prepared 1% solution in water
Description: To monitor degradation of hypochlorite in the formulations (liquids), foams, and deposit residues, one can use Raman microscopy. Raman spectra were acquired using a Horiba Aramis confocal Raman microscope with a 10× objective (numerical aperture 0.25), a 1200 grooves/mm diffraction grating, and a 17-mW 633-nm HeNe laser without attenuation. The monochromator was calibrated before each set of measurements using the Si peak at 520.7 cm-1 of a Si wafer reference sample.
The degradation of hypochlorite ion (ClO—) was assessed by the intensity ratio of the main Raman peaks of ClO— at 715 cm-1 and perchlorate ClO4- at 937 cm-1 (FIG. 8). Perchlorate is a product of the final degradation of hypochlorite.

[3] = Hypochlorite degradation in formulation by chlorine strip; conditions: after 24 hrs
Description: as §1

[4] = presence of hypochlorite 0.7-1 wt. % CL

Min surface tension ([1]; absence of hypochlorite) [mN/m]	No hypochlorite (CMC) ([1]; absence of hypochlorite) [g/L]	0.7-1% hypochlorite (CMC) [1, 4] [g/L]	Min surface tension [1, 4] [mN/m]	change of CMC value in the presence of hypochlorite [1]	Compound	ClO-/ClO4- Raman peak ratio [2]	fraction of hypochlorite already degraded ([2]; from peak ratio)	decrease of hypochlorite concentration in the formulation [3]
28	2.4	2.6	28	increased slightly	CCCCCCCCCCCCOS(=O)(=O)[O-].[Na+] [SDS, Sodium dodecyl sulfate]			
				increased slightly	NCCS(=O)(=O)O [Taurate]			
					[Na+].[O-]Cl [hypochlorite, sodium hypochlorite]	about 2	about 30%	30-40%
28	0.3	0.31	28	a small decrease or no change	cocamidopropyl betaine [CAPB]			

Source: patent US20220264887A1, “Foam Formulations For Decontamination Of Surfaces With Minimum Wastewater” (The Trustees of Columbia University in the City of New York, priority 2020, published 2022)
